Measurements reported in US20200165194A1, “ADDITIVE COMPOSITION FOR CULTURE MEDIUM, ADDITIVE COMPOUND FOR CULTURE MEDIUM, AND METHOD FOR CULTURE OF CELLS OR TISSUE USING SAME” (NISSAN CHEMICAL CORPORATION, priority 2017, published 2020).
Like-named read-outs stand apart in the source and are kept apart here.

Legend:
[1] = test system: Human umbilical vein endothelial cells; test: Vascular endothelial cell, 3D culture, ATP assay (Experimental Example 14); format: cell-based; details: human umbilical vein endothelial cells under three-dimensional conditions
Method: Human umbilical vein endothelial cells (manufactured by PromoCell) were precultured in Endothelial Cell proliferation Medium (manufactured by PromoCell) medium (single layer culture). The above-mentioned cells in the logarithmic growth phase were washed with PBS, DetachKit (manufactured by PromoCell) was added, and adherent cells were detached by incubating at 37° C. for 3 min. The medium was added and the mixture was centrifuged and resuspended in the same medium.
The aforementioned cells were suspended in respective deacylated gellan gum-containing or not containing media (deacylated gellan gum concentration was 0.015 w/v %), and seeded in a 96 well low attachment U-bottom plate (manufactured by Corning, #4520, deacylated gellan gum-free medium), or a low attachment flat bottom plate (manufactured by Corning, #3474, deacylated gellan gum-containing medium) at a cell concentration of 700-2000 cells/90 μL/well (all 3D culture). […] The amount of each compound solution to be added was 10 μL/well. As a control, a DMSO solution dissolved in a medium was added (DMSO final concentration 0.1%).

[2] = test system: Mouse embryonic fibroblast C3H10T1/2; test: Fibroblast strain C3H10T1/2, 3D culture, ATP assay (Experimental Example 11); format: cell-based
Method: Mouse embryonic fibroblast C3H10T1/2 (manufactured by DS PHARMA BIO MEDICAL) was cultured in a BME medium (manufactured by Thermo Fisher Scientific) containing 10 (v/v) % FBS (manufactured by Corning) and the L-glutamine-penicillin-streptomycin stabilizing solution (manufactured by Sigma-Aldrich). The above-mentioned cells in the logarithmic growth phase were washed with PBS, a 0.25 w/v % trypsin-1 mmol/L EDTA (ethylenediaminetetraacetic acid) solution (manufactured by Wako Pure Chemical Industries, Ltd.) was added, and the cells were detached by incubating at 37° C. for 3 min. Each medium was added, the mixture was centrifuged, and the supernatant was removed.
The aforementioned various cells were suspended in respective deacylated gellan gum-containing or not containing media (deacylated gellan gum concentration was 0.015 w/v %), and seeded in a 96 well low attachment U-bottom plate (manufactured by Corning, #4520, deacylated gellan gum-free medium) at a cell concentration of 700-2000 cells/90 μL/well (3D culture). […] The amount of each compound solution to be added was 10 μL/well. As a control, a DMSO solution dissolved in a medium was added (DMSO final concentration 0.1%). […] When compared with the compound no-addition (control), one showing a value of not more than 119% as -, one showing a value of not less than 120% as ◯, and one showing a value of not less than 150% as ⊚ are shown in the eighteenth table. Unperformed test is left blank.

[3] = test system: human ovarian cancer cell line SKOV3; test: Action on SKOV3 cell-2: 3D (deacylated gellan gum) and 2D culture, EGF medium, ATP assay (Experimental Example 3); details: for viability at 1 µM / viability at 5 µM / viability at 10 µM / viability at 20 µM: Homo sapiens, SK-OV-3, 96 h, 4 days, compound non-addition = 100%
Method: According to the method of patent document 1 (WO 2014/017513), a composition of McCoy's 5a medium (manufactured by Sigma-Aldrich) containing 0.015% (w/v) deacylated gellan gum (KELCOGEL CG-LA, manufactured by Sansho Co., Ltd.) and 15% (v/v) FBS, 30 ng/mL human EGF (manufactured by PEPROTECH) was prepared using FCeM-series Preparation Kit (manufactured by Wako Pure Chemical Industries, Ltd.). In a single layer culture, a non-addition medium composition not containing deacylated gellan gum was prepared. Then, human ovarian cancer cell line SKOV3 (manufactured by DS PHARMA BIO MEDICAL) was suspended in the above-mentioned medium composition added with deacylated gellan gum, and dispensed into the wells of a 384 well flat bottom Ultr-low Attachment surface microplate (manufactured by Corning Incorporated, #3827) at 1000 cells/36 μL/well (three-dimensional culture (3D)). In a single layer culture (2D), human ovarian cancer cell line SKOV3 was suspended in the above-mentioned medium composition not containing deacylated gellan gum, and dispensed into the wells of a 384 well flat bottom microplate (manufactured by Corning Incorporated, #3712) at 400 cells/36 μL per well. After dispensing, the compound to be used in the present invention dissolved in dimethyl sulfoxide (DMSO) was added by 4 μL each at a final concentration of 0, 1, 5, 10, 20 μM, and continuously cultured for 4 days. Each plate was cultured in a standing state in a CO2 incubator (37° C., 5% CO2) for 4 days. An ATP reagent (40 μL) (CellTiter-Glo (registered trade mark) Luminescent Cell Viability Assay, manufactured by Promega) was added to the culture medium on day 4, and the mixture was stirred by a plateshaker (manufactured by AS ONE Corporation, Micro plate mixer NS-P) at room temperature for 15 min. The luminescence intensity (RLU value) was measured by EnSpire (manufactured by Perkin Elmer) and the luminescence value of the medium alone was subtracted to measure the number of viable cells.

[4] = test system: Bone marrow-derived human mesenchymal stem cells (BM-hMSC); test: Human mesenchymal stem cell-2: 3D, EZSPHERE and 2D culture, ATP assay (Experimental Example 10); format: cell-based; details: for viability at 1 µM / viability at 5 µM / viability at 10 µM / viability at 20 µM: Homo sapiens, Mesenchymal stem cells, 96 h, read-out: relative value of RLU (number of viable cells), BM-hMSC, 4 days, non-addition = 100%
Method: Bone marrow-derived human mesenchymal stem cells (BM-hMSC, manufactured by PromoCell) were precultured by a single layer culture method (2D) using a mesenchymal stem cell proliferation medium (manufactured by PromoCell). In three-dimensional culture method (3D), hMSC was suspended in a medium composition added with deacylated gellan gum, and seeded in a […] flat bottom Ultr-low Attachment surface plate (manufactured by Corning Incorporated, #3474) at 6000 cells/90 μL/well. In the three-dimensional culture method using EZSPHERE (EZSPHERE), hMSC was suspended in a deacylated gellan gum-free medium composition, and seeded in a 96-well EZSPHERE plate (manufactured by AGC TECHNO GLASS CO., LTD., #4860-900) at 2000 cells/90 μL/well. In 2D, hMSC was suspended in a deacylated gellan gum-free medium composition, and seeded in a 96-well flat bottom plate (manufactured by Corning Incorporated, #3585) at 2000 cells/90 μL/well. […] As a control, DMSO was added at a final concentration of 0.1%.

[5] = read-out: relative value of RLU (number of viable cells), 2D single layer culture
[6] = read-out: relative value of RLU (number of viable cells), 3D culture (deacylated gellan gum)

CC/C(=N\NC(=O)NCc1cccc(O)c1)c1ccc(O)c(C)c1O [k-1:J-1]
proliferation activity (in words) [1]: promoted proliferation activity in human umbilical vein endothelial cells
number of viable cells (RLU), relative value to control (100%) ([2]; C3H10T1/2, low attachment U-bottom plate, 1 μM, 4 days): ⊙
proliferation activity (in words) ([2]; fibroblast under three-dimensional conditions): promoted proliferation activity in fibroblast
viability at 1 µM [3, 5]: 93%
viability at 5 µM [3, 5]: 96%
viability at 10 µM [3, 5]: 97%
viability at 20 µM [3, 5]: 102%
viability at 1 µM [3, 6]: 116%
viability at 5 µM [3, 6]: 170%
viability at 10 µM [3, 6]: 186%
viability at 20 µM [3, 6]: 173%
cell proliferation promoting effect (in words) ([3]; single layer culture (2D) of SKOV3 cells): a favorable cell proliferation promoting effect was not observed
cell proliferation promoting effect (in words) ([3]; three-dimensional culture (3D) of SKOV3 cells): exhibited cell proliferation promoting effect at a wide concentration range
viability at 1 µM ([4]; 2D): 107%
viability at 5 µM ([4]; 2D): 121%
viability at 10 µM ([4]; 2D): 146%
viability at 20 µM ([4]; 2D): 157%
viability at 1 µM ([4]; 3D (deacylated gellan gum)): 132%
viability at 5 µM ([4]; 3D (deacylated gellan gum)): 330%
viability at 10 µM ([4]; 3D (deacylated gellan gum)): 579%
viability at 20 µM ([4]; 3D (deacylated gellan gum)): 773%
viability at 1 µM ([4]; EZSPHERE plate): 149%
viability at 5 µM ([4]; EZSPHERE plate): 241%
viability at 10 µM ([4]; EZSPHERE plate): 321%
viability at 20 µM ([4]; EZSPHERE plate): 231%
proliferation activity (in words) ([4]; three-dimensional cell culture conditions): promoted proliferation activity of BM-hMSC
proliferation activity (in words) ([4]; two-dimensional cell culture conditions): promoted proliferation activity of hMSC
